What was measured:
[1] = tested on: HT-29; assay: Cytokinetic studies (cell cycle distribution by flow cytometry), HT-29; assay type: cell-based, human
Protocol: Cells were cultured in RPMI 1640 with 10% fetal calf serum. Doubling times for these cell lines are 18 and 25 hours.
The DNA content of propidium-iodide stained nuclei was measured by flow cytometry. Cells in early exponential growth were incubated with or without drug, trypsinized and washed twice in PBS. A total of 10^6 viable cells, as determined by trypan blue exclusion, were permeabilized in sucrose-citrate-DMSO buffer as described by Vindelov et al., enucleated with trypsin and incubated with RNAse. Stripped nuclei were stained with propidium iodide at a final concentration of 2.5 ug/ml. Correlated dual parameter measurements of DNA content (from propidium-iodide red fluorescence excited at 488 nm) versus forward angle light scatter were performed using an EPICS C flow cytometer equipped with a 5W ultraviolet enhanced argon ion laser. Histograms consisting of a minimum of 10,000 nuclei were analyzed off-line with an EPICS C to RSX-11M conversion program (EPICOPY) and subsequently analyzed with ROMP and ROC3D programs rewritten for a DEC 11/73 computer. Cell cycle analysis for the compartmental boundaries and number of cells in the G1, S, and G2M phases was performed on ROMP-readable files using either a multiple gaussian fitting routine developed by Dean et al. or, for the perturbed histograms, a parametric method based on multiple broadened rectangles. […]

[2] = tested on: SW480; assay: Cytokinetic studies (cell cycle distribution by flow cytometry), SW480; assay type: cell-based, human
Protocol: Cells were cultured in RPMI 1640 with 10% fetal calf serum.
The DNA content of propidium-iodide stained nuclei was measured by flow cytometry. Cells in early exponential growth were incubated with or without drug, trypsinized and washed twice in PBS. A total of 10^6 viable cells, as determined by trypan blue exclusion, were permeabilized in sucrose-citrate-DMSO buffer as described by Vindelov et al., enucleated with trypsin and incubated with RNAse. Stripped nuclei were stained with propidium iodide at a final concentration of 2.5 ug/ml. Correlated dual parameter measurements of DNA content (from propidium-iodide red fluorescence excited at 488 nm) versus forward angle light scatter were performed using an EPICS C flow cytometer equipped with a 5W ultraviolet enhanced argon ion laser. Histograms consisting of a minimum of 10,000 nuclei were analyzed off-line with an EPICS C to RSX-11M conversion program (EPICOPY) and subsequently analyzed with ROMP and ROC3D programs rewritten for a DEC 11/73 computer. Cell cycle analysis for the compartmental boundaries and number of cells in the G1, S, and G2M phases was performed on ROMP-readable files using either a multiple gaussian fitting routine developed by Dean et al. or, for the perturbed histograms, a parametric method based on multiple broadened rectangles.

[3] = tested on: colorectal cancer; details: cited from earlier work
[4] = 5-fluorouracil 50-500 uM, 24 hour incubation
[5] = alone or in combination, data not shown

O=c1[nH]cc(F)c(=O)[nH]1 [5-fluorouracil]
G2M compartment, dose response [1, 4]: nearly complete depletion of G2M | time of G2M depletion from start of incubation ([1]; time course, 5-fluorouracil 50 uM, alpha-2a-interferon 500 U/ml): ≤ 7 h | G2M compartment, dose response [2, 4]: nearly complete depletion of G2M | accumulation of cells in S and G2M ([2]; 24 hours, alone or in combination, data not shown): concomitant decrease in the accumulation of cells in S and G2M at 24 hours | block in G0/G1 [2, 5]: prolongation of the block in G0/G1 to 24 hours | effects on cell cycle distribution compared with HT-29 [2, 5]: qualitatively identical effects | median survival of treated patients ([3]; compared with untreated controls): no better than that of untreated controls | remissions in patients ([3]; disseminated colorectal cancer): 15-35 % of patients

From patent US5814640A, “Method of treating gastrointestinal malignancies” (Montefiore Medical Center, priority 1997, dated 1998)
